Experimental data reported in CN101016265A, “一种新型hiv-1逆转录酶抑制剂的制备及其用途” (Capital Medical University, priority 2007, dated 2007).

Biological target: T1, HIV-1 reverse transcriptase (HIV-1逆转录酶) (Human immunodeficiency virus type 1 group M subtype B, UniProt P03366)
T1 construct: HIV-1逆转录酶HIV-1 RT为基因工程重组酶
Assay: HIV-1 RT activity assay (oligo(dT)15-coated 96-well plate, poly(A) template, biotin-11-dUTP / SA-ALP / PNPP, 405 nm)
Assay type: biochemical
Conditions: relative to nevirapine (NVP); range stated for the six compounds together

Row | Structure (SMILES) | activity higher than that of nevirapine (NVP)
1 | CCOCn1c(Cc2ccccc2)c(Br)c(=O)[nH]c1=O [化合物9, 1-乙氧甲基-5-溴-6-苄基尿嘧啶] | 3.6-627 fold
2 | CN(C)c1c(Cc2ccccc2)n(COCc2ccccc2)c(=O)[nH]c1=O [化合物7, 1-苄氧甲基-5-N,N-二甲基氨基-6-苄基尿嘧啶] | 3.6-627 fold
3 | O=c1[nH]c(=O)n(COCc2ccccc2)c(Cc2ccccc2)c1I [化合物5, 1-苄氧甲基-5-碘-6-苄基尿嘧啶] | 3.6-627 fold
4 | O=c1[nH]c(=O)n(COCc2ccccc2)c(Cc2ccccc2)c1Br [化合物6, 1-苄氧甲基-5-溴-6-苄基尿嘧啶] | 3.6-627 fold
5 | CCOCn1c(Cc2ccccc2)c(N(C)C)c(=O)[nH]c1=O [化合物10, 1-乙氧甲基-5-N,N-二甲基氨基-6-苄基尿嘧啶] | 3.6-627 fold
6 | CCOCn1c(Cc2ccccc2)c(I)c(=O)[nH]c1=O [化合物8, 1-乙氧甲基-5-碘-6-苄基尿嘧啶] | 3.6-627 fold
